Assay [1] addresses T1, Motilin receptor (Oryctolagus cuniculus, UniProt A5A4K8). The assay is described as follows: In vitro binding affinity towards motilin receptor was determined in rabbit small intestinal smooth muscle tissue homogenate. Type of assay: tissue-based.
The subject of the next assay is Streptococcus pneumoniae. The assay can be described thus: Tested for antimicrobial activity against Streptococcus pneumoniae No. 12. It counts as functional.
Assay [2] has as its target T1, Motilin receptor. The assay is described as follows: In vitro binding affinity towards motilin receptor was determined after treatment with hydrochloric acid in rabbit small intestinal smooth muscle tissue homogenate. Type of assay: tissue-based.
The species entered for a further assay is Oryctolagus cuniculus. The assay is described as follows: In vitro contractile activity was measured in the rabbit duodenum preparation. Type of assay: functional.
Assay [3] relates to Canis familiaris. The assay is described as follows: In vivo contractile activity in the gastric antrum and the small intestine in fasted conscious dogs upon intravenous administration was determined. Type of assay: functional, Canis lupus familiaris.
The subject of assay [4] is Canis familiaris. The assay is described as follows: In vivo contractile activity in the gastric antrum and the small intestine in fasted conscious dogs upon intragastric administration was determined. Type of assay: functional, Canis lupus familiaris.
The test system of the next assay is Bacillus subtilis. The assay can be described thus: Tested for antimicrobial activity against Bacillus subtilis ATCC 6633. It counts as functional.
A further assay concerns Klebsiella pneumoniae. The assay can be described thus: Tested for antimicrobial activity against Klebsiella pneumoniae IFO 3512. It counts as functional.
The next assay has as its system Staphylococcus aureus. The assay is described as follows: Tested for antimicrobial activity against Staphylococcus aureus 209P. Type of assay: functional.

pEC50, pIC50: −log10 of the molar value. Values after ≈ are worked out from the molar mass of the structure shown. Where only a bound is given, the exact number is not on record here.

T1 sequence (A5A4K8 whole entry): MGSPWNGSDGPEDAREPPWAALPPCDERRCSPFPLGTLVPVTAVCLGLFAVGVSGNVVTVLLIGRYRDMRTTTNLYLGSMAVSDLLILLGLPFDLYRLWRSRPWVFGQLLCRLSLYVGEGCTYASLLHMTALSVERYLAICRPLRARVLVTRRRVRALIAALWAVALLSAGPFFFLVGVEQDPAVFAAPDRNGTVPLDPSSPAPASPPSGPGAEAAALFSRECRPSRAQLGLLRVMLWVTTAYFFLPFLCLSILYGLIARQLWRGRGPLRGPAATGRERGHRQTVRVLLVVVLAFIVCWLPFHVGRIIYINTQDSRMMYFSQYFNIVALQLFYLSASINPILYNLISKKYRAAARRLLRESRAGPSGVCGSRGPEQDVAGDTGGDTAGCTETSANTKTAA

One may read the pIC50 as −log10 of the IC50, conventionally taken in molar units. A lower pIC50 goes with a high IC50. One may read the MIC as the lowest concentration found to suppress growth. Broadly, the pEC50 is the EC50 on a negative log10 scale, so that one unit is a factor of ten. The low end stands for a high EC50, the high end for a low EC50. Take `CCC1OC(=O)C(C)C(O[C@H]2C[C@@](C)(OC)CC(C)O2)C(C)[C@@H](OC2OC(C)CC(N(C)C(C)C)[C@H]2O)[C@]2(C)CC(C)=C(O2)[C@H](C)C(=O)[C@]1(C)OC` (some centres undefined): the values for the negative logarithm of the IC50 (pIC50) on Motilin receptor [1] and on Motilin receptor [2] were 8.60 and 8.75, respectively. For the same compound, in the assay with Streptococcus pneumoniae, 100 µg/mL was the least that counted as inhibitory (MIC). The same compound showed a pEC50 in the assay listed under Oryctolagus cuniculus of 8.21. The MI100 in the assay on Canis familiaris [3] was determined as 0.09 µg/kg; in the assay on Canis familiaris [4], 0.3 µg/kg.

On to `CCC1OC(=O)C(C)C(O[C@H]2C[C@@](C)(OC)CC(C)O2)C(C)[C@@H](OC2OC(C)CC(N(C)C)[C@H]2O)[C@]2(C)CC(C)=C(O2)[C@H](C)C(=O)[C@]1(C)OC` (some centres undefined), for which the pIC50 at Motilin receptor [1] is 8.64; on Motilin receptor [2] it was 8.41. For the same compound, the MIC with Streptococcus pneumoniae (read-out: MIC) amounted to 1600 µM; with Bacillus subtilis it was 50 µg/mL (≈ 70.2 µM); against Klebsiella pneumoniae, 100 µg/mL (≈ 140 µM); in the assay with Staphylococcus aureus, 100 µg/mL (≈ 140 µM). This compound showed a pEC50 in the assay listed under Oryctolagus cuniculus of 7.98. Further, the MI100 amounted to 0.4 µg/kg in the assay on Canis familiaris [3] and 1.2 µg/kg in the assay on Canis familiaris [4].

As to `CCC1OC(=O)C(C)C(O[C@H]2C[C@@](C)(OC)CC(C)O2)C(C)[C@@H](OC2OC(C)CC(N(C)CC)[C@H]2O)[C@]2(C)CC(C)=C(O2)[C@H](C)C(=O)[C@]1(C)OC` (some centres undefined), the figures for the pIC50 on Motilin receptor [1] and at Motilin receptor [2] were 8.46 and 8.42, respectively. For the same compound, the MIC in the assay with Streptococcus pneumoniae was 100 µg/mL. The compound also showed a pEC50 in the assay filed under Oryctolagus cuniculus of 8.04. For the same compound, the results for the MI100 with Canis familiaris [3] and in the assay on Canis familiaris [4] were 0.3 µg/kg and 0.2 µg/kg, respectively.

For `CCC1OC(=O)C(C)C(O[C@H]2C[C@@](C)(OC)CC(C)O2)C(C)[C@@H](OC2CC(N(C)C(C)C)CC(C)O2)[C@]2(C)CC(C)=C(O2)[C@H](C)C(=O)[C@]1(C)OC` (some centres undefined), on Motilin receptor [1], the pIC50 is 8.73. In the assay filed under Oryctolagus cuniculus, this compound showed a pEC50 of 6.68. In addition, in the assay with Canis familiaris [3], the MI100 is greater than 70 µg/kg.

The record behind these values is ChEMBL document CHEMBL1127928, “Macrolide-type motilin receptor agonists: Assessment of the biological value of the 2- and 4-hydroxyl groups of acid-stable 8,9-anhydroerythromycin A 6,9-hemiacetals” (Bioorg Med Chem Lett, 1994).
